Experimental data reported in US20240309069A1, “COMPOSITIONS AND METHODS FOR TREATMENT OF DISEASES” (Byrock Technologies Limited, priority 2014, published 2024).
Ends that are not written are not given here.

Tested on: carbohydrate overload model of acute laminitis in horses
Experiment: Oligofructose (carbohydrate) overload model of acute laminitis, LTNF peptide study KLM-15-02
Format: in vivo
Conditions: all horses that received the intravenous peptide, 2 to 8 grams
Procedure: This communication is a brief report on the results obtained from the recent clinical study to evaluate the potential prophylactic and/or therapeutic properties of KLM's proprietary application of a 15 amino acid sequence termed LTRF in saline when employed in a carbohydrate overload model of acute laminitis in horses.
In compliance with the methods outlined in protocol KLM-15-02, nine healthy, mature horses between 4 and 9 years of age were evaluated for enrollment in the clinical study. […] Preliminary examinations were deemed normal for all candidates. Eligible candidates underwent a formal acclimation period of 10 days, during which feed, water, housing and management were identical to conditions of the actual study. On Days −3, −2, and −1, oligofructose was added to the a.m. grain ration of each candidate at a dosage of 1 gram per kg body weight.
Prior to induction on Day 0, a baseline lameness exam was repeated and captured on video. […]
At regular, 6-hr intervals after induction, the general health of each horse was assessed, a lameness exam was repeated, and rectal temperature was monitored. Once diarrhea had begun, each horse's hydration status was monitored at 2- to 4-hr intervals by assessing its packed cell volume (PCV; hematocrit) and plasma total protein concentration. […]

“LKAMDPTPPLWIKTE [LTNF peptide, Leu-Lys-Ala-Met-Asp-Pro-Thr-Pro-Pro-Leu-Trp-Ile-Lys-Thr-Glu]” was tested, and the “signs of immune reaction or toxicity” value was “no signs of immune reaction or toxicity”.
